Values of other authors, collected in patent US20260008814A1, “DEVELOPMENT OF PEPTIDES WITH ANTI-CANCER AND ANTIMICROBIAL PROPERTIES” (YILDIZ TEKNIK ÜNIVERSITESI DÖNER SERMAYE ISLETME MÜD, priority 2023, published 2026).

Tested on: F. nucleatum attachment and invasion of HCT116

ASANWTIQYND
inhibition of F. nucleatum attachment and invasion: inhibitory peptide
